The test system of test [1] is carrageenan-induced hind paw acute inflammation. The experiment in a line: Carrageenan hind paw acute inflammation, mechanical allodynia (up-down method). It is filed as in vivo, rat. Particulars: Example 7, 24 hours after carrageenan. How it is done:
Animals were treated with saline (0.5% final), indomethacin, PEG, magnesium or combined PEG+magnesium solutions. Each animal received 2 injections, the first one 1 hour following carrageenan injection and the second injection 6 hours later. The total dose of PEG and magnesium chloride administered was of 2 and 0.135 g/kg (body weight) respectively. There were 10 animals per group.
Indomethacin (Fluka, cat. 57413, lot 450544/1) was dissolved in 25% hydroxyl-propyl beta cyclodextrin (hpBCD) by gentle heating and stirring. The PEG solution was composed of PEG3350 at 30% in 0.5% saline, the magnesium solution was composed of magnesium chloride at 2% and the combined PEG+magnesium solution was composed of 30% PEG3350+2% Magnesium Chloride (custom made by AAIPharma Developmental Services, Wilmington, N.C.). […]
Twenty-four hours following carrageenan injection into the left paw, the same paw was tested for mechanical allodynia. Baseline and post-treatment values for non-noxious mechanical sensitivity were evaluated using 8 Semmes-Weinstein filaments (Stoelting, Wood Dale, Ill., USA) with varying stiffness (0.4, 0.7, 1.2, 2.0, 3.6, 5.5, 8.5, and 15 g) according to the up-down method (Chaplan et al., 1994). […]
To evaluate the significance of difference between experimental groups, data were analyzed using an unpaired, two-tailed t statistical test with confidence intervals of 95%.
Background: Carrageenan injected into the paw causes an acute inflammation.

Test [2] deals with controlled cortical impact model of brain injury (TBI). The experiment in a line: Morris Water Maze test of cognitive function after controlled cortical impact TBI. It is filed as in vivo, rat.
Description: Male Sprague-Dawley rats (Harlan Sprague-Dawley, Indianapolis, Ind.), weighing 350-450 grams each were given free access to food and water before the experiment. The animals were anesthetized with halothane (1% in 70%/30% NO2/O2 by mask).
Animals were anesthetized with isoflorane and placed in a stereotaxic frame in the supine position. A 6 mm craniotomy located approximately midway between bregma and lambda, just above the somatosensory cortex, was made using a Michele trephine. The skull disk was then removed without disturbing the underlying dura mater. The exposed brain was injured using an electronically controlled piston (5 mm diameter, 65 kdynes). The animals in the “sham” group underwent identical surgical procedures, but the surface of the brain was not impacted.
Following surgery, animals were placed in their home cage and dosing was initiated. Animals were treated with saline (Group 1: sham, Group 2: injured), PEG (Group 3: injured), magnesium (Group 4: injured) or a combination of PEG and magnesium solutions (Group 5: injured). The PEG solution was composed of PEG3350 at 30% in 0.5% saline (custom made by AAIPharma Developmental Services, Wilmington, N.C.). […] The magnesium solution was diluted in saline 1:1 before intravenous injection as recommended by the manufacturer. In the cases of combined PEG+Mg combined treatments, animal received the PEG and magnesium components from two individual solutions.
In more details, each animal received 2 injections: • Group 1: Sham—1.23 ml/kg of saline solution followed by 1.23 ml/kg of saline solution; • Group 2: Injured—1.23 ml/kg of saline solution followed by 1.23 ml/kg of saline solution; • Group 3: Injured—2.33 ml/kg of PEG solution followed by 0.12 ml/kg of saline solution; • Group 4: Injured—0.12 ml/kg of magnesium solution followed by 2.33 ml/kg of saline solution; • Group 5: Injured—2.33 ml/kg of PEG solution followed by 0.12 ml/kg of magnesium solution. […]
The effects of PEG, magnesium sulfate and combined treatment on recovery of cognitive function following TBI were evaluated using the Morris Water Maze Test. […]
The next test has as its system pain. Particulars: human, in vivo; cited from earlier work.
The test system of test [3] is spinal cord contusion at T10 (SCI). The experiment in a line: Locomotor recovery, modified 12-point BBB scale, after spinal cord contusion (dural impact model). It is filed as in vivo, rat. Particulars: Example 4; iv, 15 min and 6 h post-injury; total 2 g/kg PEG, 0.12 g/kg magnesium sulfate. How it is done:
Sprague-Dawley female rats (200-225 gm) received a spinal cord contusion using the Precision Scientific Inc pneumatic impactor. Prior to surgery, rats were assigned to different treatment groups based on a randomized block design so that on any given surgery day all treatments would be included. The rats were anesthetized with ketamine (80 mg/kg) and xylazine (10 mg/kg) before a laminectomy will be performed at the 10th thoracic vertebra (T10). The vertebral column was stabilized with angled clamps on the upper thoracic (T8) and lumbar (T11) levels and the impactor with a tip diameter of 2 mm was delivered at approximately 50 kd onto the exposed, intact dura overlying the dorsal spinal cord. The impactor was immediately removed, the wound irrigated with saline, and the muscle and skin openings sutured together. Female animals were used due to the paralysis associated with the injury and ease of voiding the bladder.
Following surgery, animals were placed in their home cage and dosing was initiated. Animals were treated with saline (Group 1: sham, Group 2: injured), PEG (Group 3: injured), magnesium (Group 4: injured) or a combination of PEG and magnesium solutions (Group 5: injured). […]
(§1) To evaluate the significance of difference between experimental groups, data were analyzed using an unpaired, two-tailed t statistical test with confidence intervals of 95%. […]

For test [4] the test system is unchanged. The experiment in a line: Spinal cord lesion volume after SCI contusion (eriochrome cyanine sections). It is filed as in vivo, rat. The following applies: Example 4, sacrificed on day 14, total 2 g/kg PEG, 0.12 g/kg magnesium sulfate.
Protocol: Following surgery, animals were placed in their home cage and dosing was initiated. […]
At the end of the study, the spinal cords were extracted and fixed in 4% paraformaldehyde. […] Tissue sparing was determined by computed image analysis be from 10 evenly spaced sections through the injured T10 segment. […]
Test [5] relates to clip-compression injury at T4 (SCI). The experiment in a line: Locomotor recovery, 21-point BBB open field test, after clip-compression SCI. The following applies: Example 5; day 7 post-SCI; total 0.6 g/kg magnesium sulfate iv. It is filed as in vivo, rat. As for the experimental part: Wistar female rats weighing 200-250 grams received a controlled clip-compression injury at T4. This experimental model has been previously described in details in Gris et al., 2004. Briefly, animals were premedicated with diazepam (3.5 mg/kg, i.p.) and atropine (0.05 mg/kg, s.c.) in order to facilitate a smooth induction of anesthesia by 4% halothane and maintenance with 1.0-1.5% halothane. The T4 spinal cord segment was exposed by dorsal laminectomy and a modified aneurysm clip, calibrated to 50 grams compression was passed extradurally around the cord and spring released for 60 seconds. Nerve roots were not disrupted during the clip compression.
Following SCI, animals were placed in their home cage and dosing was initiated. […]
Locomotor recovery was assessed by the 21-point Basso, Beatie and Bresnahan (BBB) open field locomotor test (Basso et al., 1995), from day 3-21 after injury. Locomotor function was evaluated by 2 blinded investigators at each testing period.
as §1
Following SCI, rats were treated with saline, PEG, Mg or a combined solution of PEG and Mg. Locomotor recovery was assessed by the 21-point BBB score system from day 3-25 post-injury.

The test system of test [6] is neuropathic pain after SCI. The experiment in a line: Mechanical allodynia (neuropathic pain score, Semmes-Weinstein monofilament) after SCI. It is filed as in vivo, rat. Particulars: Example 6; up to 3 weeks post-injury. How it is done:
Animals were prepared as described in Example 3.
Animals were tested for the development of neuropathic pain before and up to 3 weeks post-injury. Neuropathic pain occurrence and severity was evaluated by the response of the animal to a stimulus that is normally not painful or allodynia. Briefly, a modified Semmes-Weinstein monofilament (Stoelting Co, Wood Dale, Ill.) calibrated to generate a force of 15 mN was applied to the dorsal trunk at dermatomes corresponding to spinal segments immediately rostral to the lesion level (T1-T3). The monofilament was applied 10 times for 3 seconds, with each stimulus being separated by a 5 second interval, and the number of avoidance responses out of a possible 10 were recorded. Avoidance responses were defined as flinching, escape, vocalization, or abnormal aggressive behaviors. The scoring system used to monitor mechanical allodynia has been presented in details in Gris et al., 2004. Mechanical allodynia testing was conducted twice per week and the 2 tests were averaged for each animal and reported as a weekly pain score.
To evaluate the significance of difference between experimental groups, data were analyzed using an unpaired, two-tailed t statistical test with confidence intervals of 95%. The Welch's modification was also used to analyze the motor recovery to take in account the significant variability in the control group. […]

A further test concerns stroke. Particulars: intravenous, up to 12 hours following stroke onset; 2589 patients; cited from earlier work.
In another test the test system is TBI. The following applies: trial initiated in 1999; cited from earlier work.

SMILES strings stand for the structures.

On to `COc1ccc2c(c1)c(CC(=O)O)c(C)n2C(=O)c1ccc(Cl)cc1` [Indomethacin], for which the “mean pain score (mechanical allodynia)” value in test [1] (carrageenan-saline 3.4+/−0.5, sham 12.7+/−1.1, higher is better) is reported as 5.6+/−0.9.

In the case of `[Cl-].[Cl-].[Mg+2]` [Magnesium, magnesium chloride], in test [2] (summary statement in the description), the “effect on the loss of cognitive functions following brain injury” value is “no effect”. Further, the “effect on the pain score relative to animals treated with saline” value in test [1] (total 2 g/kg PEG or 0.135 g/kg magnesium chloride) is reported as “no significant effect”. In addition, the “duration of analgesic effect” value with pain was ≤ 4 h.

Consider `[Cl-].[Cl-].[Mg+2]` [magnesium chloride], for which the “effect on cognitive recovery after TBI” value in test [2] (Example 2, total 1.4 g/kg PEG or 0.230 mmol/kg magnesium chloride) is on record as “no significant effect”.

Take `O=S(=O)([O-])[O-].[Mg+2]` [Mg, magnesium sulfate]: in [2] (Example 1, iv, 15 min and 6 h post-injury, total 1.4 g/kg PEG or 0.230 mmol/kg magnesium sulfate), the “effect on cognitive functions following TBI” value is given as “no effect”. The “effect on motor functions following SCI (12-point BBB score) relative to SCI-Saline group” value in [3] was “no effect”. Further, the “reduction of the lesion volume relative to control group (SCI-Saline)” value in test [4] amounted to 33%. The “effect on motor recovery (21-point BBB)” value in [5] is “Some improvement”. The “effect on the development of neuropathic pain after SCI” value in test [6] was “no significant effect”. In the test on stroke, the “clinical improvement after stroke” value is “no significant improvement”. In the test on TBI, the “preliminary data of clinical trial in TBI patients” value is “negative”.

The values above are taken from US9717756B2, “Method of treating traumatic brain or spinal cord injury with biomembrane sealing agent and magnesium compounds” (Warsaw Orthopedic, Inc., priority 2006, dated 2017).
